# Test results from publication PMC6667648 (Frontiers in Microbiology, 2019).
# Where a SMILES comes first, the peptide text is derived from it. Bridges are numbered along the chain shown (N, C = ends).
# What was measured:
# A. baumannii 6043 = assay: microbe, parasite or virus in culture; type: cell-based, Acinetobacter baumannii; details: A. baumannii 6043; 24-h incubation; mean of 3 replicates from 2 independent experiments
# Description: (§1) Strains were obtained from American Type Culture Collection (ATCC, Manassas, VA) or the clinical isolate collection at Trideum Biosciences (Frederick, MD, USA). Bioluminescence strains of P. aeruginosa 19660, transfected with the Xen5 luciferase gene, and S. aureus ATCC® 49525™ (Wright), transfected with the Xen36 luciferase gene, were obtained from Perkin Elmer (Hopkinton, MA).
# (§2) A single colony was aseptically picked from an agar overlay and released in 25–30 mL of pre-warmed trypticase soy broth in a culture flask. Each culture was incubated overnight in a 37°C incubator. […] Pathogen growth was measured by absorbance at 600 nm. Four replicas were included for each test agent concentration. […]
# A. baumannii 6838 = assay: microbe, parasite or virus in culture; type: cell-based, Acinetobacter baumannii; details: 6838, 24 h
# Description: as §1, §2
# A. baumannii ATCC 17978 = assay: microbe, parasite or virus in culture; type: cell-based, Acinetobacter baumannii; details: A. baumannii ATCC 17978; 24-h incubation; mean of 3 replicates from 2 independent experiments
# Description: as §1, §2
# K. pneumonia 6066 = assay: microbe, parasite or virus in culture; type: cell-based, Klebsiella pneumoniae; details: 24 h
# Description: as §1, §2
# K. pneumonia 6069 = assay: microbe, parasite or virus in culture; type: cell-based, Klebsiella pneumoniae; details: 24 h
# Description: as §1, §2
# K. pneumonia ATCC 10031 = assay: microbe, parasite or virus in culture; type: cell-based, Klebsiella pneumoniae; details: ATCC 10031, 24 h
# Description: as §1, §2
# C. albicans Y-326 = type: cell-based; details: 24-h incubation, mean of 3 replicates from 2 independent experiments
# Description: as §1, §2
# C. albicans Y-6359 = type: cell-based; details: 24-h incubation, mean of 3 replicates from 2 independent experiments
# Description: as §1, §2
# [1] = test system: human HaCaT keratinocytes; type: cell-based; details: 256 μg/mL
# Description: Non-invasive real-time evaluation of viability, mammalian, and bacterial cells, was performed using bioluminescent human keratinocytes (HaCaT, AddexBio, San Diego, CA) and murine L929 fibroblast cells (ATCC, Manassas, VA). The bioluminescent variants were constructed by transfection with a luciferase gene (RediFect Red-Fluc-Puromycin, Catalog #CL596002) (Hamblin et al., [2003]). […] Each concentration was performed in triplicate. Bioluminescence imaging was performed at pre-specified times (0, 15, and 30 min and 1, 3, 5, 8, and 24 h) and compared to concurrently run vehicle-controls. The 96-well plate was positioned on the stage (12.5-cm field of view) within the in vivo Imaging System (IVIS) imaging system (Caliper Life Sciences, Inc., Hopkinton, MA, USA), with an open emission filter, binning of 4, and f-stop 1, and a 1-min exposure time. The resultant photons emitted from the live cells were quantified using Living Image® software (version 4.3, Caliper Life Sciences, Inc.). Monitoring bioluminescence allows assessment of the kinetics of cellular viability as there is a tight correlation between photon count imaging and viable counts (Kadurugamuwa et al., [2003]).
# S. aureus ATCC 29213 = assay: microbe, parasite or virus in culture; details: S. aureus ATCC 29213, serial passaging at sub-MIC, duplicate
# Text: The development of resistance was confirmed if the microorganism started growing at continuously higher concentrations. […] Evaluations were done in duplicate.
# [2] = test system: 6 hr MRSA ATCC 1556 biofilm; type: cell-based, Staphylococcus aureus; details: preformed (6 h) MRSA biofilm, 16 h treatment, CFU count, three technical replicates
# [3] = rat plasma, 40 and 750 ng/mL, storage at −80°C, thaw at ambient temperature min 1 h, six replicates, LC-MS/MS
compound,measurement,setting,value
"CC[C@H](C)[C@@H]1NC(=O)CNC(=O)[C@H](CCCCN)NC(=O)[C@H](Cc2ccc(O)cc2)NC(=O)[C@@H]2CSSC[C@H](NC1=O)C(=O)N[C@@H](Cc1ccccc1)C(=O)N[C@@H](CCCCN)C(=O)N[C@@H](CCCCN)C(=O)N[C@H](C(=O)N[C@@H](CCCCN)C(N)=O)CSSC[C@H](NC(=O)[C@H](Cc1ccccc1)NC(=O)[C@@H](N)CCCNC(=N)N)C(=O)N[C@@H](Cc1c[nH]c3ccccc13)C(=O)N[C@@H](CCCCN)C(=O)N[C@@H](C(C)C)C(=O)N2 [RP557] (H-RFCWKVCYKGICFKKCK-NH2; disulfide 3-16, 7-12)",Minimum Inhibitory Concentration (MIC),A. baumannii 6043,4.0 [8] μM
same,Minimum Inhibitory Concentration (MIC),A. baumannii 6838,4.0 [8] μM
same,Minimum Inhibitory Concentration (MIC),A. baumannii ATCC 17978,8.0 [16] μM
same,Minimum Inhibitory Concentration (MIC),K. pneumonia 6066,4.0 [8] μM
same,Minimum Inhibitory Concentration (MIC),K. pneumonia 6069,2.0 [4] μM
same,Minimum Inhibitory Concentration (MIC),K. pneumonia ATCC 10031,4.0 [8] μM
same,Minimum Inhibitory Concentration (MIC),C. albicans Y-326,8.0 [16] μM
same,Minimum Inhibitory Concentration (MIC),C. albicans Y-6359,2.0 [4] μM
same,Keratinocyte cell killing,[1]; 8 h incubation,no cell killing observed
same,Keratinocyte viability,[1]; 8 h,greater than 80%
same,MIC on Passage #0 and Passage #1,S. aureus ATCC 29213,2 µg/mL
same,MIC on Passage #30,S. aureus ATCC 29213,32 µg/mL
same,"EC90, biofilm CFU",[2],6 µg/mL
same,Degradation after three freeze-thaw cycles,[3],did not show signs of degradation
